What was measured:
[1] = Cytotoxicity against mouse B16F10 cells assessed as cell viability at 20 ug/ml incubated for 72 hrs by MTT assay; assay type: cell-based, B16-F10; settings: read-out: Activity
Tyrosinase = molecular target: T1, Tyrosinase (Agaricus bisporus, UniProt O42713); test: Inhibition of mushroom tyrosinase using L-DOPA as substrate assessed as formation of L-DOPA chrome preincubated for 10 mins followed by addition of substrate measured over 10 mins by […]
T1 sequence (O42713 whole entry): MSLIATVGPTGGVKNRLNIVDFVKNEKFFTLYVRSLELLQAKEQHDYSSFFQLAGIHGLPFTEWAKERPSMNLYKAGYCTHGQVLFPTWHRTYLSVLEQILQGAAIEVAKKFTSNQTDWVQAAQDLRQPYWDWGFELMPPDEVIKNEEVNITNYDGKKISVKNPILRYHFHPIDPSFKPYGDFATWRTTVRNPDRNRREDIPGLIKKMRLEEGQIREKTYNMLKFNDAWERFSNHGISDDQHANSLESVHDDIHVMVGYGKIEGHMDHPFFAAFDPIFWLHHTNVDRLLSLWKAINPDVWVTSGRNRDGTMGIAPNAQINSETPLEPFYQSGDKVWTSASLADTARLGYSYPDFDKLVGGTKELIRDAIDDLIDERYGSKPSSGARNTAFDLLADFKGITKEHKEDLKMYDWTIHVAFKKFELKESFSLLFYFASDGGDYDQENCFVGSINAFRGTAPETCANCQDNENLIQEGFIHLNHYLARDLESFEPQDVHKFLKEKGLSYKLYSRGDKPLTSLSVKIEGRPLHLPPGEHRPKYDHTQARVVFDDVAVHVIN

[2] = molecular target: T2, Tyrosinase (Mus musculus) (UniProt P11344); test: Inhibition of tyrosinase in mouse B16F10 cells assessed as reduction of melanin production at 20 ug/ml incubated for 72 hrs; assay type: cell-based; settings: B16-F10
T2 sequence (whole entry): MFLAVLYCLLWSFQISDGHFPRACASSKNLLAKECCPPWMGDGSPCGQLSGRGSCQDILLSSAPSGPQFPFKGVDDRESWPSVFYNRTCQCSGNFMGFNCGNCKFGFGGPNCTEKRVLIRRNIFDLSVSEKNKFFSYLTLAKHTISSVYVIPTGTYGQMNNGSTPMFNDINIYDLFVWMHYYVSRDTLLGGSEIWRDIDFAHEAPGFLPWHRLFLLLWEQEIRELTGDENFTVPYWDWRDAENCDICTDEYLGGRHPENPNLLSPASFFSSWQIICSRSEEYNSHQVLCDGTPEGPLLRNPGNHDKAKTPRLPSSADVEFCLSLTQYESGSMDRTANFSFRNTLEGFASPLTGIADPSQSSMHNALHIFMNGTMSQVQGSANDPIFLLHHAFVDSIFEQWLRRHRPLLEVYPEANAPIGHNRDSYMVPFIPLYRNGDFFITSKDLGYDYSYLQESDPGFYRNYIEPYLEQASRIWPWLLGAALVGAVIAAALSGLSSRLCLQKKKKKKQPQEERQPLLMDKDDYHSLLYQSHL

SMILES	IC50 (Tyrosinase) [µM]	inhibition [2] [%]	viability at 72 h, 20 ug/ml [1] [%]
O=C1OC(c2ccc(/N=N/c3ccc(N4CCOCC4)cc3)cc2)=N/C1=C/c1ccc(F)cc1Cl	16	32.4	60.7
O=C1OC(c2ccc(/N=N/c3ccc(N4CCOCC4)cc3)cc2)=N/C1=C/c1ccccc1[N+](=O)[O-]	20.3	30.7	58.1
O=C1OC(c2ccc(/N=N/c3ccc(N4CCOCC4)cc3)cc2)=N/C1=C/c1cccs1	13.7	31.2	56.7

Continued by falling IC50 (Tyrosinase), values first:

IC50 (Tyrosinase) [µM]	inhibition [2] [%]	SMILES	viability at 72 h, 20 ug/ml [1] [%]
18.9	34.4	O=C1OC(c2ccc(/N=N/c3ccc(N4CCOCC4)cc3)cc2)=N/C1=C/c1ccc(Cl)cc1	61.9
17.2	40.1	O=C1OC(c2ccc(/N=N/c3ccc(N4CCOCC4)cc3)cc2)=N/C1=C/c1ccccc1	62.9
15.8	38.8	O=C1OC(c2ccc(/N=N/c3ccc(N4CCOCC4)cc3)cc2)=N/C1=C/c1ccc(F)cc1	57.2
